The values below come from article PMC5701137, “Discovery of novel choline acetyltransferase inhibitors using structure-based virtual screening” (Scientific Reports, 2017).

Structures are written as SMILES. “And” between values parts separate entries of the source, which are not always exact repeats. Equal values may be shown once. Where only a bound is given, the exact number is not on record here.

The target of this assay is T1, human rChAT (Homo sapiens, UniProt P28329).
T1 construct: made in house; host or cells: E. coli BL21 Rosetta2
T1 sequence (P28329 1-630 isoform P28329-3): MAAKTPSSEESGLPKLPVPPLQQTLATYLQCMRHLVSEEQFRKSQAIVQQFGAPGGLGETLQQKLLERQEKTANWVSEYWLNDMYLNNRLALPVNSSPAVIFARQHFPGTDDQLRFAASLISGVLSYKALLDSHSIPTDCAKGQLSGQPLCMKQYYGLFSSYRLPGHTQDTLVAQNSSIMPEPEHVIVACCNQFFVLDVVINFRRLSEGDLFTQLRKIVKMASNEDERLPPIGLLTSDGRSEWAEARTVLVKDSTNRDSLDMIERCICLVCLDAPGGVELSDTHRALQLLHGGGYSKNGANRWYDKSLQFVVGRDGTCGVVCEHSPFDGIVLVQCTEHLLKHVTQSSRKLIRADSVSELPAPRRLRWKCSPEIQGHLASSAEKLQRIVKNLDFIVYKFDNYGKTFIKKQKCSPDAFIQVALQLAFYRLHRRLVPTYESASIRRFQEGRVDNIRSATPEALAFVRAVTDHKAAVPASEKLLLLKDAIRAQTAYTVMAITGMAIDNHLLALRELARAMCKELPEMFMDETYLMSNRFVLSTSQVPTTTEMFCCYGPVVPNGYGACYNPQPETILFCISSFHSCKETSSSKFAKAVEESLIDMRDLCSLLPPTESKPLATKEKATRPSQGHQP
In words: In vitro ChAT activity inhibition fluorometric assay and kinetic studies. In kind it is biochemical. To be noted: for mode of inhibition of human rChAT: Lineweaver-Burk plot and nonlinear regression fit; for Vmax of rChAT: inhibitor 0.4 µM, mean ± SEM of two experiments; for Ki / IC50: mean of two experiments; for IC50: substrate concentrations 20 to 80 µM. How it is done:
ChAT activity was measured using our newly developed fluorometric assay, using human recombinant ChAT (rChAT) protein. The reagents, choline chloride, acetyl coenzyme-A (ACoA, A2181) and 7-Diethylamino-3-(4-maleimidophenyl)-4-methylcoumarin (CPM) were purchased from Sigma-Aldrich (St. Louis, MO, USA).
The ChAT assay could be run in either 96-well or 384-well plates. For 96-well plates, 50 μL/well of 0.212 µg/ml (final concentration) of the recombinant ChAT was incubated with 100 μM different Asinex compounds (50 μL/well) for 10–30 minutes at room temperature in dilution buffer (10 mM Tris-HCl, pH 7.4, 150 mM NaCl, 1.0 mM EDTA, 0.05% (v/v) Triton X-100). Then, 50 µL of a cocktail-A [dilution buffer containing choline chloride (final concentration 150 µM), ACoA (final concentration 13.3 µM) and CPM (final concentration 15 µM)] was added to each well. Immediately after adding the cocktail-A, the changes in fluorescence was monitored kinetically at 479 nm after exciting at 390 nm at 1–2 minute intervals for 15–20 minutes using a microplate spectrophotometer reader (Infinite M1000, Tecan).
Each Asinex compounds were run in triplicates. On each 96-wells plate, several enzyme wells without inhibitor were also included during measurements as control and for estimating the inhibition level. Negative controls were wells without enzyme. The percentage inhibition for each Asinex compound was calculated based on the enzyme control value as a reference (100% activity). The compounds showing over 50% inhibition of enzyme activity were selected for further kinetic studies.
For kinetic studies, a similar protocol as inhibition assay was followed; a dilution series of five different concentrations ranging from 10^−6 to 10^−9 M were prepared for each selected Asinex compounds. For ChAT, the A-CoA was kept constant at 10 μM (final) but the concentration of choline chloride varied between 320–10 μM. For BuChE, BTC was used as the substrate in the concentrations ranging from 0.0625 to 2 mM. For AChE, ATC was used as the substrate in the concentrations ranging from 0.0312 to 1 mM. Each compound concentration was measured in duplicates. The rate of enzyme activity (as ∆OD/hr kinetic data) was calculated and processed using the GraphPad Prism 7 analysis software. The inhibitory constant (Ki) values were determined from the dose-response curve and the half-maximal inhibitory concentration (IC50) values were calculated by plotting the percentage enzyme activity vs. the log of the Asinex compound concentrations and fitting the data using the nonlinear regression Enzyme Kinetics-Inhibition function.
The Michaelis-Menten constant (Km) and maximal velocity (Vmax) values were calculated from substrate-velocity curve after fitting the data with non-linear regression Michaelis-Menten kinetic function. The Km and Vmax values were further used to plot the Lineweaver-Burk plots; the plots were fitted using linear regression function.

On to `CC(C)NC(=O)C1CCN(C(=O)c2csc(Nc3cccc4ccccc34)n2)CC1` [Compound B4], for which the “mode of inhibition of human rChAT” value is listed as “mixed-model type inhibition”; the “Vmax of rChAT” value turned out to be 239.0 ± 21.4 µM/min; affinity was put at a Ki of 11.9 µM; the half-inhibitory concentration (IC50) is ~16.5 µM and 16.5 µM.

On to `CC(C)c1ccc(C(=O)CSc2n[nH]c(-c3ccco3)n2)cc1` [Compound E1], for which the “mode of inhibition of human rChAT” value is “mixed-model inhibition”; the “Vmax of rChAT” value was 276.1 ± 12.1 µM/min; the inhibition constant Ki is ~15.2 µM and 15.2 µM; the IC50 is ~25.4 µM and 25.4 µM. Moreover, the inhibition at 100 µM (100 µM compound, compared to control, mean of three experiments in triplicate, read-out: ChAT % IR (inhibition rate)) was above 50%.
